According to the supplement of paper PMC10307832:

How the values were obtained:
Test in all cases: relative viability (nuclei count vs DMSO), 5 days (fraction); higher = more cells survive
[1] = compound: CC1=NC=CC(=C1)C2=CC=C(C=C2)CC(=O)NC3=CC=C(C=C3)C4=CN=CC=C4 [Wnt-C59] + CS(=O)(=O)N1CCN(Cc2cc3nc(-c4cccc5[nH]ncc45)nc(N4CCOCC4)c3s2)CC1 [Pictilisib] (partner 1 µM)
Outline: (§1)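 Lung cancer cell lines were seeded in 1536-well plates and dosed by pin tool the next day, with either a single drug or a fixed anchor-drug dose combined with five library-drug doses (not always all listed) spaced in √10 steps. Five days later, one step fixed the cells and stained their nuclei (final 0.05% Triton X-100, 1% formaldehyde, 1 ug/ml Hoechst), and nuclei were counted on 4× images. Relative viability is the nuclei count in treated wells divided by the count in vehicle wells, and each value is the median of duplicate plates.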

[2] = compound: CC1=NC=CC(=C1)C2=CC=C(C=C2)CC(=O)NC3=CC=C(C=C3)C4=CN=CC=C4 [Wnt-C59] + O=C(CCCCCCC(=O)Nc1ccccc1)NO [Vorinostat] (partner 1 µM)
Outline: as §1

[3] = compound: CS(=O)(=O)CCNCc1ccc(-c2ccc3ncnc(Nc4ccc(OCc5cccc(F)c5)c(Cl)c4)c3c2)o1 [Lapatinib] + COc1cc2c(Oc3ccc(NC(=O)C4(C(=O)Nc5ccc(F)cc5)CC4)cc3F)ccnc2cc1OCCCN1CCOCC1 [Foretinib] (partner 0.25 µM)
Outline: as §1

[4] = compound: CS(=O)(=O)CCNCc1ccc(-c2ccc3ncnc(Nc4ccc(OCc5cccc(F)c5)c(Cl)c4)c3c2)o1 [Lapatinib] + C[C@]1(O)C[C@@H](c2nc(-c3ccc4ccc(-c5ccccc5)nc4c3)c3c(N)nccn32)C1 [Linsitinib] (partner 1 µM)
Outline: as §1

UMC-11
relative viability ([1]; first compound 0.001 µM): 0.81
relative viability ([1]; first compound 0.01 µM): 0.843
relative viability ([1]; first compound 0.03162 µM): 0.844
relative viability ([1]; first compound 0.1 µM): 0.756
relative viability ([2]; first compound 0.001 µM): 0.445
relative viability ([2]; first compound 0.01 µM): 0.418
relative viability ([2]; first compound 0.03162 µM): 0.339
relative viability ([2]; first compound 0.1 µM): 0.422
relative viability ([3]; first compound 0.02 µM): 0.951
relative viability ([3]; first compound 0.06325 µM): 1.01
relative viability ([3]; first compound 0.2 µM): 0.961
relative viability ([3]; first compound 0.6325 µM): 0.978
relative viability ([3]; first compound 2 µM): 0.933
relative viability ([4]; first compound 0.02 µM): 1
relative viability ([4]; first compound 0.06325 µM): 0.964
relative viability ([4]; first compound 0.2 µM): 1.11
relative viability ([4]; first compound 0.6325 µM): 0.985
relative viability ([4]; first compound 2 µM): 1.02
